Laboratory results from US9586907B2, “Isothiocyanate compounds, pharmaceutical compositions, and uses thereof” (priority 2006, dated 2017).
In brackets after ≈: the same amount, converted by molar mass.

Key:
[1] = tested on: Staphylococcus epidermidis BK12798; assay: MIC, Staphylococcus epidermidis BK12798; details: Staphylococcus epidermidis BK12798; Gram +; 24 hours of incubation
[2] = tested on: Bacillus subtilis BK11590; assay: MIC, Bacillus subtilis BK11590; type: cell-based; details: Gram +, 24 hours of incubation
[3] = tested on: Enterobacter cloacii BK12313; assay: MIC, Enterobacter cloacii BK12313; details: Enterobacter cloacii BK12313; Gram −; 24 hours of incubation
Shigella sp., BK 12441 = assay: MIC, Shigella sp., BK 12441; type: cell-based; details: Gram −, 24 hours of incubation
M. tuberculosis 210 = assay: MIC, M. tuberculosis 210; type: cell-based
Protocol: (§1) Next, several of the bifunctional ITC compounds were tested for their ability to inhibit the growth of some clinical isolates of Mycobacteria, the results of which are summarized in Table 3 below.

[4] = tested on: Pseudomonas aeruginosa BK12348; assay: MIC, Pseudomonas aeruginosa BK12348; details: Pseudomonas aeruginosa BK12348; Gram −; 24 hours of incubation
[5] = tested on: Enterococcus sp., BK11940; assay: MIC, Enterococcus sp., BK11940; details: Enterococcus sp., BK11940; Gram +; 24 hours of incubation
[6] = tested on: Pseudomonas aeruginosa BK12347; assay: MIC, Pseudomonas aeruginosa BK12347; details: Pseudomonas aeruginosa BK12347; Gram −; 24 hours of incubation
M. tuberculosis W = assay: MIC, M. tuberculosis W; type: cell-based
Protocol: as §1

M. tuberculosis AB = assay: MIC, M. tuberculosis AB; type: cell-based
Protocol: as §1

[7] = tested on: Acinetobacter sp., BK12786; assay: MIC, Acinetobacter sp., BK12786; details: Acinetobacter sp., BK12786; Gram −; 24 hours of incubation
[8] = tested on: Serattia marcescens BK12421; assay: MIC, Serattia marcescens BK12421; details: Serattia marcescens BK12421; Gram −; 24 hours of incubation
M. cansassi = assay: MIC, M. cansassi; type: cell-based; details: M. cansassi
M. avium = assay: MIC, M. avium; type: cell-based; details: M. avium
[9] = tested on: Enterococcus sp., BK11936; assay: MIC, Enterococcus sp., BK11936; details: Enterococcus sp., BK11936; Gram +; 24 hours of incubation
[10] = tested on: Serattia marcescens BK12426; assay: MIC, Serattia marcescens BK12426; details: Serattia marcescens BK12426; Gram −; 24 hours of incubation
[11] = tested on: Streptococcus sp., BK12233; assay: MIC, Streptococcus sp., BK12233; details: Streptococcus sp., BK12233; Gram +; grown on Tryptic Soy agar medium; 24 hours
[12] = tested on: clinical isolates of bacteria and fungus (including yeasts); assay: General antimicrobial activity, semi-quantitative score on collection of clinical isolates; type: cell-based; details: semi-quantitative score from number of sensitive bacterial strains at 100 and 200 μM; deduced from number of sensitive bacterial species and average MIC; note: key: −: indicating no activity; +++++: indicating highest activity
Protocol: The growth inhibitory effect of a number of various ITC compounds were tested on large collection of clinical isolates of bacteria and fungus (including yeasts), in order to establish a systematic structure-activity relationship for the ITC compounds. […] To assess the average activity for an individual ITC compound, the semi-quantitative score was calculated for each compound based on the number of sensitive bacterial strains at concentrations of 100 and 200 μM.

Shigella sp., BK 12440 = assay: MIC, Shigella sp., BK 12440; type: cell-based; details: Gram −, 24 hours of incubation
M. tuberculosis H37Rv = assay: MIC, M. tuberculosis H37Rv; type: cell-based
Protocol: as §1

[13] = tested on: Acinetobacter sp., BK12787; assay: MIC, Acinetobacter sp., BK12787; details: Acinetobacter sp., BK12787; Gram −; 24 hours of incubation
M. tuberculosis W4 = assay: MIC, M. tuberculosis W4; type: cell-based
Protocol: as §1

[14] = tested on: Enterobacter cloacii BK12315; assay: MIC, Enterobacter cloacii BK12315; details: Enterobacter cloacii BK12315; Gram −; 24 hours of incubation
M. tuberculosis P = assay: MIC, M. tuberculosis P; type: cell-based
Protocol: as §1

M. bovis BCG = assay: microbe, parasite or virus in culture; type: cell-based
[15] = tested on: MRSA (Staphylococcus aureus) BK12060; assay: MIC, MRSA BK12060; details: MRSA BK12060; Gram +; 24 hours of incubation
M. fortuitum = assay: MIC, M. fortuitum; type: cell-based; details: M. fortuitum
[16] = tested on: Klebsiella pneumonii BK12260; assay: MIC, Klebsiella pneumonii BK12260; details: Klebsiella pneumonii BK12260; Gram −; 24 hours of incubation
[17] = tested on: Streptococcus sp., BK12235; assay: MIC, Streptococcus sp., BK12235; details: Streptococcus sp., BK12235; Gram +; grown on Tryptic Soy agar medium; 24 hours
M. tuberculosis CDC1551 = assay: MIC, M. tuberculosis CDC1551; type: cell-based
Protocol: as §1

M. scrofulaceum = assay: MIC, M. scrofulaceum; type: cell-based; details: M. scrofulaceum
M. intracellularie = assay: MIC, M. intracellularie; type: cell-based; details: M. intracellularie
[18] = tested on: Klebsiella pneumonii BK12261; assay: MIC, Klebsiella pneumonii BK12261; details: Klebsiella pneumonii BK12261; Gram −; 24 hours of incubation
[19] = tested on: MRSA (Staphylococcus aureus) BK12064; assay: MIC, MRSA BK12064; details: MRSA BK12064; Gram +; 24 hours of incubation
Escherichia coli K12 = assay: MIC, Escherichia coli K12; details: Escherichia coli K12; Gram −; 24 hours of incubation
Escherichia coli BK12336 = assay: MIC, Escherichia coli BK12336; details: Escherichia coli BK12336; Gram −; 24 hours of incubation
Bacillus cereus 4342 = assay: MIC, Bacillus cereus 4342; details: Bacillus cereus 4342; Gram +; 24 hours of incubation

Compound	MIC [1] [µg/mL]	MIC [2] [µg/mL]	MIC [3] [µg/mL]	MIC (Shigella sp., BK 12441) [µg/mL]	MIC (M. tuberculosis 210) [µg/mL]	MIC [4] [µg/mL]	MIC [5] [µg/mL]	MIC [6] [µg/mL]	MIC (M. tuberculosis W) [µg/mL]	MIC (M. tuberculosis AB) [µg/mL]	MIC [7] [µg/mL]	MIC [8] [µg/mL]	MIC (M. cansassi) [µg/mL]	MIC (M. avium) [µg/mL]	MIC [9] [µg/mL]	MIC [10] [µg/mL]	MIC [11] [µg/mL]	General antimicrobial activity [12]	MIC (Shigella sp., BK 12440) [µg/mL]	MIC (M. tuberculosis H37Rv) [µg/mL]	other results
S=C=NCCCCCCCN=C=S [Compound 41, S═C═N—(CH2)7—N═C═S]	4 (≈ 18.7 µM)	2 (≈ 9.33 µM)	>64	64 (≈ 299 µM)	4 (≈ 18.7 µM)	64 (≈ 299 µM)	8 (≈ 37.3 µM)	64 (≈ 299 µM)	2 (≈ 9.33 µM)	2 (≈ 9.33 µM)	32 (≈ 149 µM)	>64	8 (≈ 37.3 µM)	32 (≈ 149 µM)	8 (≈ 37.3 µM)	>64	1 to 2	+++++	64 (≈ 299 µM)	2 (≈ 9.33 µM)	MIC [13]: 32 µg/mL (≈ 149 µM); MIC (M. tuberculosis W4): 2 µg/mL (≈ 9.33 µM); MIC [14]: >64 µg/mL; MIC (M. tuberculosis P): 4 µg/mL (≈ 18.7 µM); MIC (M. bovis BCG): 2 µg/mL (≈ 9.33 µM); MIC [15]: 4 µg/mL (≈ 18.7 µM); MIC (M. fortuitum): 32 µg/mL (≈ 149 µM); MIC [16]: >64 µg/mL; MIC [17]: 1 to 2 µg/mL; MIC (M. tuberculosis CDC1551): 2 µg/mL (≈ 9.33 µM); MIC (M. scrofulaceum): 32 µg/mL (≈ 149 µM); MIC (M. intracellularie): 32 µg/mL (≈ 149 µM); MIC [18]: >64 µg/mL; MIC [19]: 4 µg/mL (≈ 18.7 µM); MIC (Escherichia coli K12): >64 µg/mL; MIC (Escherichia coli BK12336): >64 µg/mL; MIC (Bacillus cereus 4342): 2 µg/mL (≈ 9.33 µM)
S=C=NCCCCCCCCN=C=S [Compound 42, S═C═N—(CH2)8—N═C═S]	2 (≈ 8.76 µM)	2 (≈ 8.76 µM)	64 (≈ 280 µM)	>64	4 (≈ 17.5 µM)	>64	8 (≈ 35 µM)	>64	4 (≈ 17.5 µM)	4 (≈ 17.5 µM)	>64	64 (≈ 280 µM)	4 (≈ 17.5 µM)	32 (≈ 140 µM)	8 (≈ 35 µM)	64 (≈ 280 µM)	1 to 2	+++++	>64	4 (≈ 17.5 µM)	MIC [13]: >64 µg/mL; MIC (M. tuberculosis W4): 4 µg/mL (≈ 17.5 µM); MIC [14]: 64 µg/mL (≈ 280 µM); MIC (M. tuberculosis P): 4 µg/mL (≈ 17.5 µM); MIC (M. bovis BCG): 4 µg/mL (≈ 17.5 µM); MIC [15]: 2 to 4 µg/mL; MIC (M. fortuitum): 32 µg/mL (≈ 140 µM); MIC [16]: >64 µg/mL; MIC [17]: 2 µg/mL (≈ 8.76 µM); MIC (M. tuberculosis CDC1551): 8 µg/mL (≈ 35 µM); MIC (M. scrofulaceum): 32 µg/mL (≈ 140 µM); MIC (M. intracellularie): 32 µg/mL (≈ 140 µM); MIC [18]: >64 µg/mL; MIC [19]: 4 µg/mL (≈ 17.5 µM); MIC (Escherichia coli K12): >64 µg/mL; MIC (Escherichia coli BK12336): >64 µg/mL; MIC (Bacillus cereus 4342): 2 µg/mL (≈ 8.76 µM)
